From patent US20230278997A1, “BICYCLO[1.1.1]PENTANE COMPOUNDS FOR THE TREATMENT AND PROPHYLAXIS OF HEPATITIS B VIRUS INFECTION” (Hoffmann-La Roche Inc., priority 2020, published 2023)
Like-named read-outs stand apart in the source and are kept apart here.

Key:
HBeAg = assay: microbe, parasite or virus in culture; type: cell-based, HBV; conditions: Hepatitis B virus, read-out: HBeAg IC50
HBsAg = assay: microbe, parasite or virus in culture; type: cell-based, HBV; conditions: Hepatitis B virus, read-out: HBsAg IC50
[1] = Human microsome stability assay; type: in vitro ADME; conditions: 1 μM compound, 0.5 mg/mL microsomal protein, 37° C.; detection limit 6.15 mL/min/kg
Protocol: Human Microsome Stability Assay The human microsomal stability assay is used for early assessment of metabolic stability of a test compound in human liver microsomes. Human liver microsomes (Cat. […] The reactions were initiated by adding NADPH regenerating system. […] Following precipitation and centrifugation, the amount of compound remaining in the samples were determined by LC-MS/MS. Controls of no NADPH regenerating system at zero and 30 minutes were also prepared and analyzed.

[2] = system: primary human hepatocyte (PHH); assay: Cytotoxicity in PHH natural infection assay (Cell Counting Kit-8); type: cell-based; conditions: therapeutic index; CC50 by CCK8 in PHH over HBsAg IC50
Protocol: Detailed procedures regarding primary human hepatocyte (PHH) HBV natural infection assay are described as below. One tube of frozen PHH (10 million cells) was thawed in 37° C. water bath and then transferred to 20 mL of PHH thawing medium (Sigma, InVitroGRO HT Medium, Cat. 503319) with gently mixing. The cells were then centrifuged at […] for 5 min, the supernatant was discarded and the tube was refilled with 25 mL of PHH plating medium (Sigma, InVitroGRO CP Medium, Cat. 503317). The tube was shaken very gently to re-suspend all cells, and then 50 μl of cells were transferred to each well of a 384-well collagen I coated plate with appropriate liquid handling equipment, e.g. Integra VIAFLO384 or Agilent Bravo. The cells were then cultured for 24 hours in a cell incubator. For HBV infection, after PHH attachment on the culture plate, the plating medium was removed and replenished with PHH culture medium containing HBV virus. The PHH culture medium was prepared with Dulbecco's Modified Eagle Medium (DMEM)/F12 (1:1 in volume ratio) containing 10% fetal bovine serum (Gibco, Cat.10099141), 5 ng/mL human epidermal growth factor (Gibco, Cat.PHG031 IL), 20 ng/mL dexamethasone (Sigma, Cat.D4902-100 mg), 250 ng/mL human recombinant insulin (Gibco, Cat.41400045) and 100 U/mL penicillin. HBV virus at 200 genome equivalent (GE) per cell with 4% PEG8000 (Sigma, Cat.P1458) containing culture medium were added to the PHH culture medium for infection. The cells were then cultured for 24 hours in cell incubator. Then the cell culture supernatant was removed. The HBV-infected PHH were cultured with sandwich culture method with PHH culture medium containing 1% DMSO and 0.25 mg/mL matrix gel for 72 hours. The supernatant was then refreshed with PHH culture medium containing different concentrations of testing compounds for two times with 72-hour interval. At the end of treatment, the supernatant was collected for viral markers measurements, including HBsAg, HBeAg, HBV DNA and cytotoxicity. HBsAg and HBeAg were detected using alphalisa method using their specific antibodies. For HBV DNA detection, HBV DNA Quantitative Fluorescence Diagnostic Kit (Sansure Biotech Inc.) was used following the manufacture's protocol. Cytotoxicity was determined using Cell Counting Kit-8 (CCK8, Dojindo Molecular Technologies, Inc.).

[3] = Single dose pharmacokinetics (PK) study in male C57BL/6 mouse; type: in vivo; conditions: for clearance / half-life / Vd / AUC(0-t): male; for clearance / half-life / Vd: C57BL/6, plasma; for clearance / half-life / Vd / F: mouse; for Vd: read-out: VSS; for AUC(0-t): C57BL/6, mouse plasma; for F: dose normalized AUC0-last
Protocol: Single Dose Pharmacokinetics (PK) Study in Male C57BL/6 Mouse Pharmacokinetic properties of selected compounds were assessed by single dose PK studies in Male C57BL/6 mouse (vendor: Beijing Vital River Laboratory Animal Technology Co., Ltd). Briefly, two groups of animals were administered a single dose of respective compound intravenously (IV, bolus) at 1 mg/kg or orally (PO, by gavage) at 10 mg/kg or 30 mg/kg. […] After centrifugation, the resulting plasma was transferred to clean tubes for bioanalysis with LC/MS/MS. The pharmacokinetic parameters were calculated using non-compartmental analysis. The volume of distribution (Vss), half-life (T1/2) and clearance (CL) were obtained based on the plasma concentration-time curve after IV dose. The peak concentration (Cmax) was recorded directly from experimental observations after PO dose. The area under the plasma concentration-time curve (AUC0-last and AUC0-24 h) was calculated using the linear trapezoidal rule up to the last detectable concentration. The bioavailability (F) was calculated based on the dose normalized AUC0-last after IV and PO dose. The Vss of a drug represents the degree to which a drug is distributed in body tissue rather than the plasma. Vss is directly proportional with the amount of drug distributed into tissue. A higher Vss indicates a greater amount of tissue distribution.

[4] = as above; type: in vivo; conditions: IV dose 0.4 mg/kg
[5] = IV bolus 1 mg/kg, read-out: IV AUC0-24h
[6] = PO 30 mg/kg single dose, read-out: PO AUC0-24h
[7] = PO 10 mg/kg single dose, read-out: PO AUC0-24h

Compound | IC50 (HBeAg) [nM] | IC50 (HBsAg) [nM] | Clearance of human microsome [1] [mL/min/kg] | TI (CC50/IC50 HBsAg) [2] | clearance ([3]; IV bolus 1 mg/kg) [mL/min/kg] | half-life ([3]; IV bolus 1 mg/kg) [h] | Vd ([3]; IV bolus 1 mg/kg) [L/kg] | AUC(0-t) [3, 5] [µg·h/mL] | AUC(0-t) [3, 6] [µg·h/mL] | F ([3]; PO 30 mg/kg vs IV) [%] | AUC(0-t) ([4]; C57BL/6, mouse plasma, AUC value is dose-normalized, read-out: IV AUC0-24h) [µg·h/mL] | clearance ([4]; C57BL/6, plasma, mouse) [mL/min/kg] | half-life ([4]; C57BL/6, plasma, mouse) [h] | Vd ([4]; C57BL/6, plasma, mouse, read-out: VSS) [L/kg] | AUC(0-t) [3, 7] [µg·h/mL] | F ([3]; PO 10 mg/kg vs IV 1 mg/kg) [%]
CS(=O)(=O)C1(c2ccc(C(=O)NC34CC(c5nc(-c6ccc(Cl)cc6)cs5)(C3)C4)o2)CC1 [Example 1, N-[3-[4-(4-chlorophenyl)thiazol-2-yl]-1-bicyclo[1.1.1]pentanyl]-5-(1-methylsulfonylcyclopropyl)furan-2-carboxamide] | 120 | 160 | ≤6.15 | 27.88 | 0.2 | 23.6 | 0.4 | 42.7 | 1310 | 102 |  |  |  |  |  | 
CS(=O)(=O)C1(c2ccc(C(=O)NC34CC(c5cnn(-c6ccc(Cl)cc6)n5)(C3)C4)o2)CC1 [Example 30, N-[3-[2-(4-chlorophenyl)triazol-4-yl]-1-bicyclo[1.1.1]pentanyl]-5-(1-methylsulfonylcyclopropyl)furan-2-carboxamide] | 40 | 60 | ≤6.15 | 148.67 | 0.19 | 48.4 | 0.74 | 27 | 370 | 46 |  |  |  |  |  | 
CS(=O)(=O)C1(c2ccc(C(=O)NC34CC(c5nc(-c6ccc(Cl)cc6)no5)(C3)C4)o2)CC1 [Example 32, N-[3-[3-(4-chlorophenyl)-1,2,4-oxadiazol-5-yl]-1-bicyclo[1.1.1]pentanyl]-5-(1-methylsulfonylcyclopropyl)furan-2-carboxamide] | 40 | 40 | ≤6.15 | 112.00 | 0.43 | 17.8 | 0.64 | 24.1 | 249 | 35 |  |  |  |  |  | 
CS(=O)(=O)C1(c2nsc(C(=O)NC34CC(c5nc(-c6ccc(Cl)cc6)no5)(C3)C4)n2)CC1 [Example 34, N-[3-[3-(4-chlorophenyl)-1,2,4-oxadiazol-5-yl]-1-bicyclo[1.1.1]pentanyl]-3-(1-methylsulfonylcyclopropyl)-1,2,4-thiadiazole-5-carboxamide] | 20 | 20 | ≤6.15 | 181.50 |  |  |  |  | 270 | 39 | 24.2 | 0.03 | > 40 | 0.93 |  | 
CS(=O)(=O)C1(c2ccc(C(=O)NC34CC(c5noc(-c6ccc(Cl)cc6)n5)(C3)C4)o2)CC1 [Example 40, N-[3-[5-(4-chlorophenyl)-1,2,4-oxadiazol-3-yl]-1-bicyclo[1.1.1]pentanyl]-5-(1-methylsulfonylcyclopropyl)furan-2-carboxamide] | 100 | 140 | ≤6.15 | 46.00 | 0.85 | 12 | 0.83 | 14.9 | 80.8 | 18 |  |  |  |  |  | 
CS(=O)(=O)C1(c2nsc(C(=O)NC34CC(c5noc(-c6ccc(Cl)cc6)n5)(C3)C4)n2)CC1 [Example 41, N-[3-[5-(4-chlorophenyl)-1,2,4-oxadiazol-3-yl]-1-bicyclo[1.1.1]pentanyl]-3-(1-methylsulfonylcyclopropyl)-1,2,4-thiadiazole-5-carboxamide] | 80 | 130 | 14.14 | 65.54 | 0.11 | 67.3 | 0.62 | 34 |  |  |  |  |  |  | 59.7 | 18
CS(=O)(=O)C1(c2ccc(C(=O)NC34CC(c5nnn(-c6ccc(Cl)cc6)n5)(C3)C4)o2)CC1 [Example 44, N-[3-[2-(4-chlorophenyl)tetrazol-5-yl]-1-bicyclo[1.1.1]pentanyl]-5-(1-methylsulfonylcyclopropyl)furan-2-carboxamide] | 270 | 350 | ≤6.15 | 12.20 |  |  |  |  |  |  |  |  |  |  |  | 
CS(=O)(=O)C1(c2ccc(C(=O)NC34CC(c5ccnc(-c6ccc(Cl)cc6)n5)(C3)C4)o2)CC1 [Example 47, N-[3-[2-(4-chlorophenyl)pyrimidin-4-yl]-1-bicyclo[1.1.1]pentanyl]-5-(1-methylsulfonylcyclopropyl)furan-2-carboxamide] | 140 | 150 | ≤6.15 | 59.67 |  |  |  |  |  |  |  |  |  |  |  | 
CS(=O)(=O)C1(c2nsc(C(=O)NC34CC(c5ccnc(-c6ccc(Cl)cc6)n5)(C3)C4)n2)CC1 [Example 48, N-[3-[2-(4-chlorophenyl)pyrimidin-4-yl]-1-bicyclo[1.1.1]pentanyl]-3-(1-methylsulfonylcyclopropyl)-1,2,4-thiadiazole-5-carboxamide] | 70 | 70 | 10.71 | 127.43 | 0.07 | 53.7 | 0.29 | 70.2 |  |  |  |  |  |  | 629 | 92
CS(=O)(=O)C1(c2nsc(C(=O)NC34CC(c5cnn(-c6ccc(Cl)cc6)n5)(C3)C4)n2)CC1 [Example 60, N-[3-[2-(4-chlorophenyl)triazol-4-yl]-1-bicyclo[1.1.1]pentanyl]-3-(1-methylsulfonylcyclopropyl)-1,2,4-thiadiazole-5-carboxamide] | 17 | 17 | ≤6.15 | 261.76 | 0.1 | 62.4 | 0.55 | 38.1 | 154 | 14 |  |  |  |  |  | 
